#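 All cell lines were grown in 96-well plates and treated with compound for 48 hours. TGI: total growth inhibition.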
# Assays:
# Assay in all cases: DTP human tumour cell line panel, 48 h
# 786-0 renal = test system: 786-0 renal
# A498 renal = test system: A498 renal
# A549 NSCLC = test system: A549 NSCLC
# ACHN renal = test system: ACHN renal
# BT-549 breast = test system: BT-549 breast
# CAKI-1 renal = test system: CAKI-1 renal
# CCRF-CEM leukemia = test system: CCRF-CEM leukemia
# COLO 205 colon = test system: COLO 205 colon
# DU-145 prostate = test system: DU-145 prostate
# EKVX NSCLC = test system: EKVX NSCLC
# HCC-2998 colon = test system: HCC-2998 colon
# HCT-116 colon = test system: HCT-116 colon
# HCT-15 colon = test system: HCT-15 colon
# HL-60(TB) leukemia = test system: HL-60(TB) leukemia
# HOP-62 NSCLC = test system: HOP-62 NSCLC
# HOP-92 NSCLC = test system: HOP-92 NSCLC
# HS 578T breast = test system: HS 578T breast
# HT29 colon = test system: HT29 colon
# IGROV1 ovarian = test system: IGROV1 ovarian
# K-562 leukemia = test system: K-562 leukemia
# KM12 colon = test system: KM12 colon
# LOX IMVI melanoma = test system: LOX IMVI melanoma
# M14 melanoma = test system: M14 melanoma
# MALME-3M melanoma = test system: MALME-3M melanoma
# MCF7 breast = test system: MCF7 breast
# MDA-MB-231 breast = test system: MDA-MB-231 breast
# MDA-MB-435 = test system: MDA-MB-435
# MDA-N = test system: MDA-N
# MOLT-4 leukemia = test system: MOLT-4 leukemia
# NCI-H226 lung = test system: NCI-H226 lung
# NCI-H23 lung = test system: NCI-H23 lung
# NCI-H460 lung = test system: NCI-H460 lung
# NCI-H522 lung = test system: NCI-H522 lung
# NCI/ADR-RES ovarian = test system: NCI/ADR-RES ovarian
# OVCAR-3 ovarian = test system: OVCAR-3 ovarian
# OVCAR-4 ovarian = test system: OVCAR-4 ovarian
# OVCAR-5 ovarian = test system: OVCAR-5 ovarian
# OVCAR-8 ovarian = test system: OVCAR-8 ovarian
# PC-3 prostate = test system: PC-3 prostate
# RPMI-8226 leukemia = test system: RPMI-8226 leukemia
# RXF 393 renal = test system: RXF 393 renal
# SF-268 CNS = test system: SF-268 CNS
# SF-295 CNS = test system: SF-295 CNS
# SF-539 CNS = test system: SF-539 CNS
# SK-MEL-2 melanoma = test system: SK-MEL-2 melanoma
# SK-MEL-28 melanoma = test system: SK-MEL-28 melanoma
# SK-MEL-5 melanoma = test system: SK-MEL-5 melanoma
# SK-OV-3 ovarian = test system: SK-OV-3 ovarian
# SN12C renal = test system: SN12C renal
# SNB-19 CNS = test system: SNB-19 CNS
# SNB-75 CNS = test system: SNB-75 CNS
# SR leukemia = test system: SR leukemia
# SW-620 colon = test system: SW-620 colon
# T-47D breast = test system: T-47D breast
# TK-10 renal = test system: TK-10 renal
# U251 CNS = test system: U251 CNS
# UACC-257 melanoma = test system: UACC-257 melanoma
# UACC-62 melanoma = test system: UACC-62 melanoma
# UO-31 renal = test system: UO-31 renal
smiles,measurement,setting,value
COC(=O)CN1Cc2cc(C)cc(c2O)CN(CC(=O)OC)Cc2cc(C)cc(c2O)CN(CC(=O)OC)Cc2cc(C)cc(c2O)C1,TGI,786-0 renal,> 100 µM
same,TGI,A498 renal,> 84.3 µM
same,TGI,A549 NSCLC,> 100 µM
same,TGI,ACHN renal,> 100 µM
same,TGI,BT-549 breast,> 100 µM
same,TGI,CAKI-1 renal,> 100 µM
same,TGI,CCRF-CEM leukemia,> 100 µM
same,TGI,COLO 205 colon,> 100 µM
same,TGI,DU-145 prostate,> 100 µM
same,TGI,EKVX NSCLC,> 100 µM
same,TGI,HCC-2998 colon,> 100 µM
same,TGI,HCT-116 colon,> 100 µM
same,TGI,HCT-15 colon,> 100 µM
same,TGI,HL-60(TB) leukemia,> 100 µM
same,TGI,HOP-62 NSCLC,> 100 µM
same,TGI,HOP-92 NSCLC,> 100 µM
same,TGI,HS 578T breast,> 100 µM
same,TGI,HT29 colon,> 100 µM
same,TGI,IGROV1 ovarian,> 100 µM
same,TGI,K-562 leukemia,> 100 µM
same,TGI,KM12 colon,> 100 µM
same,TGI,LOX IMVI melanoma,> 100 µM
same,TGI,M14 melanoma,> 86.6 µM
same,TGI,MALME-3M melanoma,> 100 µM
same,TGI,MCF7 breast,> 96.3 µM
same,TGI,MDA-MB-231 breast,> 77.2 µM
same,TGI,MDA-MB-435,> 100 µM
same,TGI,MDA-N,> 100 µM
same,TGI,MOLT-4 leukemia,> 100 µM
same,TGI,NCI-H226 lung,> 61.3 µM
same,TGI,NCI-H23 lung,> 100 µM
same,TGI,NCI-H460 lung,> 100 µM
same,TGI,NCI-H522 lung,> 100 µM
same,TGI,NCI/ADR-RES ovarian,> 100 µM
same,TGI,OVCAR-3 ovarian,> 100 µM
same,TGI,OVCAR-4 ovarian,> 100 µM
same,TGI,OVCAR-5 ovarian,> 100 µM
same,TGI,OVCAR-8 ovarian,> 100 µM
same,TGI,PC-3 prostate,> 73.7 µM
same,TGI,RPMI-8226 leukemia,> 100 µM
same,TGI,RXF 393 renal,> 75 µM
same,TGI,SF-268 CNS,> 100 µM
same,TGI,SF-295 CNS,> 100 µM
same,TGI,SF-539 CNS,> 100 µM
same,TGI,SK-MEL-2 melanoma,> 77.1 µM
same,TGI,SK-MEL-28 melanoma,> 100 µM
same,TGI,SK-MEL-5 melanoma,> 100 µM
same,TGI,SK-OV-3 ovarian,> 100 µM
same,TGI,SN12C renal,> 100 µM
same,TGI,SNB-19 CNS,> 100 µM
same,TGI,SNB-75 CNS,> 74.7 µM
same,TGI,SR leukemia,> 100 µM
same,TGI,SW-620 colon,> 100 µM
same,TGI,T-47D breast,> 68.5 µM
same,TGI,TK-10 renal,> 100 µM
same,TGI,U251 CNS,> 100 µM
same,TGI,UACC-257 melanoma,> 100 µM
same,TGI,UACC-62 melanoma,> 100 µM
same,TGI,UO-31 renal,> 100 µM
